The record followed here is patent US10407409B2, “6-(5-hydroxy-1H-pyrazol-1-yl)nicotinamide inhibitors of PHD” (Takeda Pharmaceutical Company Limited, priority 2013, dated 2019).

The test system of test [1] is HIF1a protein in H9c2 rat cardiomyocytes. Briefly: Cell-based HIF-alpha stabilization assay (inhibition of PHD in cells). As to conditions: Rattus norvegicus, H9c2, 24 h, 24 hrs compound incubation, HIF1a protein by ELISA, read-out: Inhibition of PHD in cells (pEC50) (converted). The procedure, abridged: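 HIF1a stabilization was measured by ELISA on lysates of H9c2 rat cardiomyocytes after 24 h exposure to 11 serial compound concentrations, expressed relative to the desferrioxamine maximum. Curve fits gave EC50. EC50pos denotes the concentration producing half the desferrioxamine maximal response.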
(ELISA stands for enzyme-linked immunosorbent assay.)

For test [2], the target named is PHD2 enzyme (residues 181-417) (Homo sapiens (Human), UniProt Q9GZT9). Briefly: Inhibition of PHD enzyme (LC/MS peptide hydroxylation assay). It counts as biochemical. To be noted: PHD2 (residues 181-417) 5 nM, 60 min pre-incubation; -log(IC50), IC50 molar. The procedure, abridged:
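Hydroxylated peptide quantified by LC/MS after 60 min turnover of 1 uM biotinylated peptide with 2 uM 2-oxoglutarate and 1 mM ascorbate, stopped by excess tight-binding inhibitor. Beforehand, 5 nM enzyme and compound were preincubated 60 min at RT, pH 7.3 HEPES/KCl/TCEP/FeCl2/BSA buffer. Values as pIC50 (−log molar IC50).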

PHD2 enzyme (residues 181-417), sequence (Q9GZT9 181-417): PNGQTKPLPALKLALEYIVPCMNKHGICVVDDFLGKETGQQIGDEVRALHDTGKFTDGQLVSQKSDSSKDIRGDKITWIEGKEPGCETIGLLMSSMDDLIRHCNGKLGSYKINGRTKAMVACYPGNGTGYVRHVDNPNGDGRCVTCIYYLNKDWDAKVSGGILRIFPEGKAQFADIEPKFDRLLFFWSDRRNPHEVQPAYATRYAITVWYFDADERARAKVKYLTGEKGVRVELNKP

With `Cc1cc(C#N)ccc1-c1cnn(-c2ccc(C(=O)N3CCCC(N4CCCCC4)C3)cn2)c1O` (stereo not drawn) [Example 314, 4-(1-(5-([1,3′-bipiperidine]-1′-carbonyl)pyridin-2-yl)-5-hydroxy-1H-pyrazol-4-yl)-3-methylbenzonitrile], the EC50 in test [1] is 550 nM. The “PHD Inhibition (pIC50)” value in test [2] came to 7.90.
For the compound `Cc1cc(C#N)ccc1-c1cnn(-c2ccc(C(=O)N3CCC[C@@H](N(C)C)C3)cn2)c1O` [Example 315, (R)-4-(1-(5-(3-(dimethylamino)piperidine-1-carbonyl)pyridin-2-yl)-5-hydroxy-1H-pyrazol-4-yl)-3-methylbenzonitrile], the EC50 in test [1] is 562 nM. The “PHD Inhibition (pIC50)” value in test [2] was 8.09.
For `COC1CCN(C(=O)c2ccc(-n3ncc(-c4ccc(C#N)c(F)c4C)c3O)nc2)CC1` [Example 316, 2-fluoro-4-(5-hydroxy-1-(5-(4-methoxypiperidine-1-carbonyl)pyridin-2-yl)-1H-pyrazol-4-yl)-3-methylbenzonitrile], the EC50 in test [1] is 1290 nM. Moreover, the “PHD Inhibition (pIC50)” value in test [2] turned out to be 8.31.
The corresponding values for `Cc1c(-c2cnn(-c3ccc(C(=O)N4CC[C@@H](N(C)C)C4)cn3)c2O)ccc(C#N)c1F` [Example 317, (R)-4-(1-(5-(3-(dimethylamino)pyrrolidine-1-carbonyl)pyridin-2-yl)-5-hydroxy-1H-pyrazol-4-yl)-2-fluoro-3-methylbenzonitrile] are 676 nM and 8.31.
For `Cc1c(-c2cnn(-c3ccc(C(=O)N4CC[C@H](N(C)C)C4)cn3)c2O)ccc(C#N)c1F` [Example 318, (S)-4-(1-(5-(3-(dimethylamino)pyrrolidine-1-carbonyl)pyridin-2-yl)-5-hydroxy-1H-pyrazol-4-yl)-2-fluoro-3-methylbenzonitrile], the EC50 in test [1] was 708 nM. Further, the “PHD Inhibition (pIC50)” value in test [2] was determined as 8.35.
As for `Cc1c(-c2cnn(-c3ccc(C(=O)N4CCC[C@@H](N(C)C)C4)cn3)c2O)ccc(C#N)c1F` [Example 319, (R)-4-(1-(5-(3-(dimethylamino)piperidine-1-carbonyl)pyridin-2-yl)-5-hydroxy-1H-pyrazol-4-yl)-2-fluoro-3-methylbenzonitrile], the EC50 in test [1] is 537 nM. In addition, the “PHD Inhibition (pIC50)” value in test [2] is recorded as 8.17.
In the case of `Cc1c(-c2cnn(-c3ccc(C(=O)N4CCC[C@H](N(C)C)C4)cn3)c2O)ccc(C#N)c1F` [Example 320, (S)-4-(1-(5-(3-(dimethylamino)piperidine-1-carbonyl)pyridin-2-yl)-5-hydroxy-1H-pyrazol-4-yl)-2-fluoro-3-methylbenzonitrile], the EC50 in test [1] is 741 nM. The “PHD Inhibition (pIC50)” value in test [2] was 8.17.
The corresponding values for `Cc1c(-c2cnn(-c3ccc(C(=O)N4CC(N(C)C)C4)cn3)c2O)ccc(C#N)c1F` [Example 321, 4-(1-(5-(3-(dimethylamino)azetidine-1-carbonyl)pyridin-2-yl)-5-hydroxy-1H-pyrazol-4-yl)-2-fluoro-3-methylbenzonitrile] are 589 nM and 8.40.
Turning to `Cc1c(-c2cnn(-c3ccc(C(=O)N4CCN(C)CC4)cn3)c2O)ccc(C#N)c1F` [Example 322, 2-fluoro-4-(5-hydroxy-1-(5-(4-methylpiperazine-1-carbonyl)pyridin-2-yl)-1H-pyrazol-4-yl)-3-methylbenzonitrile], in test [1], the EC50 is 933 nM. The “PHD Inhibition (pIC50)” value in test [2] is reported as 8.26.
Taken in the same sequence, the figures for `Cc1c(-c2cnn(-c3ccc(C(=O)N4CCCN(C5CC5)CC4)cn3)c2O)ccc(C#N)c1F` [Example 323, 4-(1-(5-(4-cyclopropyl-1,4-diazepane-1-carbonyl)pyridin-2-yl)-5-hydroxy-1H-pyrazol-4-yl)-2-fluoro-3-methylbenzonitrile] were 1820 nM and 8.33.
Turning to `Cc1c(-c2cnn(-c3ccc(C(=O)N4CCN(C)C5(CC5)C4)cn3)c2O)ccc(C#N)c1F` [Example 324, 2-fluoro-4-(5-hydroxy-1-(5-(4-methyl-4,7-diazaspiro[2.5]octane-7-carbonyl)pyridin-2-yl)-1H-pyrazol-4-yl)-3-methylbenzonitrile], in test [1], the EC50 is 832 nM. In test [2], the “PHD Inhibition (pIC50)” value is 8.54.
On to `Cc1c(-c2cnn(-c3ccc(C(=O)N4CCCC4)cn3)c2O)ccc(C#N)c1F` [Example 325, 2-fluoro-4-(5-hydroxy-1-(5-(pyrrolidine-1-carbonyl)pyridin-2-yl)-1H-pyrazol-4-yl)-3-methylbenzonitrile], for which the EC50 in test [1] is 977 nM. In addition, the “PHD Inhibition (pIC50)” value in test [2] is 8.44.
With `COCCCN(C)C(=O)c1ccc(-n2ncc(-c3ccc(C#N)c(F)c3C)c2O)nc1` [Example 326, 6-(4-(4-cyano-3-fluoro-2-methylphenyl)-5-hydroxy-1H-pyrazol-1-yl)-N-(3-methoxypropyl)-N-methylnicotinamide], in test [1], the EC50 was 490 nM. Further, the “PHD Inhibition (pIC50)” value in test [2] was determined as 8.33.
Regarding `Cc1c(-c2cnn(-c3ccc(C(=O)N4CCOCC4)cn3)c2O)ccc(C#N)c1F` [Example 327, 2-fluoro-4-(5-hydroxy-1-(5-(morpholine-4-carbonyl)pyridin-2-yl)-1H-pyrazol-4-yl)-3-methylbenzonitrile], in test [1], the EC50 is 589 nM. The “PHD Inhibition (pIC50)” value in test [2] worked out at 8.47.
`CCN1CCN(C(=O)c2ccc(-n3ncc(-c4ccc(C#N)c(F)c4C)c3O)nc2)C[C@@H]1C` [Example 328, (S)-4-(1-(5-(4-ethyl-3-methylpiperazine-1-carbonyl)pyridin-2-yl)-5-hydroxy-1H-pyrazol-4-yl)-2-fluoro-3-methylbenzonitrile]: the EC50 in test [1] is 309 nM. Moreover, the “PHD Inhibition (pIC50)” value in test [2] amounted to 8.39.
For `Cc1c(-c2cnn(-c3ccc(C(=O)N4CCN(C)[C@@H](C)C4)cn3)c2O)ccc(C#N)c1F` [Example 329, (S)-4-(1-(5-(3,4-dimethylpiperazine-1-carbonyl)pyridin-2-yl)-5-hydroxy-1H-pyrazol-4-yl)-2-fluoro-3-methylbenzonitrile], the EC50 in test [1] is 331 nM. Besides, in test [2], the “PHD Inhibition (pIC50)” value was found to be 8.50.
With `CCN1CCN(C(=O)c2ccc(-n3ncc(-c4ccc(C#N)c(F)c4C)c3O)nc2)[C@H](C)C1` [Example 330, (R)-4-(1-(5-(4-ethyl-2-methylpiperazine-1-carbonyl)pyridin-2-yl)-5-hydroxy-1H-pyrazol-4-yl)-2-fluoro-3-methylbenzonitrile], the EC50 in test [1] is 407 nM. In test [2], the “PHD Inhibition (pIC50)” value turned out to be 8.34.
The corresponding values for `Cc1c(-c2cnn(-c3ccc(C(=O)N4CCC[C@@H](N(C)C5CC5)C4)cn3)c2O)ccc(C#N)c1F` [Example 331, (R)-4-(1-(5-(3-(cyclopropyl(methyl)amino)piperidine-1-carbonyl)pyridin-2-yl)-5-hydroxy-1H-pyrazol-4-yl)-2-fluoro-3-methylbenzonitrile] are 813 nM and 8.33.
With `Cc1c(-c2cnn(-c3ccc(C(=O)N4CCC[C@H](N(C)CC(F)(F)F)C4)cn3)c2O)ccc(C#N)c1F` [Example 332, (S)-2-fluoro-4-(5-hydroxy-1-(5-(3-(methyl(2,2,2-trifluoroethyl)amino)piperidine-1-carbonyl)pyridin-2-yl)-1H-pyrazol-4-yl)-3-methylbenzonitrile], the EC50 in test [1] is 759 nM. Further, the “PHD Inhibition (pIC50)” value in test [2] amounted to 8.47.
For the compound `Cc1c(-c2cnn(-c3ccc(C(=O)N4CCC[C@H](N(C)CC(F)F)C4)cn3)c2O)ccc(C#N)c1F` [Example 333, (S)-4-(1-(5-(3-((2,2-difluoroethyl)(methyl)amino)piperidine-1-carbonyl)pyridin-2-yl)-5-hydroxy-1H-pyrazol-4-yl)-2-fluoro-3-methylbenzonitrile], the EC50 in test [1] is 741 nM. Moreover, the “PHD Inhibition (pIC50)” value in test [2] was found to be 8.55.
`Cc1c(-c2cnn(-c3ccc(C(=O)N4CCN5CCC[C@@H]5C4)cn3)c2O)ccc(C#N)c1F` [Example 334, (R)-2-fluoro-4-(5-hydroxy-1-(5-(octahydropyrrolo[1,2-a]pyrazine-2-carbonyl)pyridin-2-yl)-1H-pyrazol-4-yl)-3-methylbenzonitrile]: the EC50 in test [1] was 1380 nM. In addition, the “PHD Inhibition (pIC50)” value in test [2] is 8.50.
Take `Cc1c(-c2cnn(-c3ccc(C(=O)N4CC(N5CCCCC5)C4)cn3)c2O)ccc(C#N)c1F` [Example 335, 2-fluoro-4-(5-hydroxy-1-(5-(3-(piperidin-1-yl)azetidine-1-carbonyl)pyridin-2-yl)-1H-pyrazol-4-yl)-3-methylbenzonitrile]: in test [1], the EC50 is 1320 nM. The “PHD Inhibition (pIC50)” value in test [2] is given as 8.43.
For the compound `Cc1c(-c2cnn(-c3ccc(C(=O)N4CCC[C@@H](N(C)CC(F)F)C4)cn3)c2O)ccc(C#N)c1F` [Example 336, (R)-4-(1-(5-(3-((2,2-difluoroethyl)(methyl)amino)piperidine-1-carbonyl)pyridin-2-yl)-5-hydroxy-1H-pyrazol-4-yl)-2-fluoro-3-methylbenzonitrile], the EC50 in test [1] was 977 nM. For the same compound, the “PHD Inhibition (pIC50)” value in test [2] is reported as 8.53.
Consider `Cc1c(-c2cnn(-c3ccc(C(=O)N4CCN(C(C)C)[C@H](C)C4)cn3)c2O)ccc(C#N)c1F` [Example 337, (R)-2-fluoro-4-(5-hydroxy-1-(5-(4-isopropyl-3-methylpiperazine-1-carbonyl)pyridin-2-yl)-1H-pyrazol-4-yl)-3-methylbenzonitrile], for which, in test [1], the EC50 was 1350 nM. Also, in test [2], the “PHD Inhibition (pIC50)” value is 8.36.
